# Results: PubChem BioAssay (NCI)
#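 Method: 48-hour compound exposure of cells in 96-well plates, five concentrations, linear interpolation of endpoints. TGI is the concentration that stops growth completely.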
# System: M14 melanoma
# Experiment: NCI anticancer screen, dose series, 48 h
row,Structure (SMILES),TGI [µM]
1,COc1cc(/C=N/NC2=NCCN2)ccc1O,> 100
2,O=C(NCCCCCN1CCC2(CCCCC2)CC1)C(C1CCCCC1)C1CCCCC1,3.23
3,C/C(=N\NC(N)=S)c1ccc(C2CCCCC2)cc1,22.7
4,CC[C@@]1(O)C(=O)OCc2c1cc1n(c2=O)Cc2c-1nc1ccccc1c2/C=N\NC(=O)C(N)Cc1c[nH]c2ccccc12 (some centres undefined),8.77
5,CCCCCCCCCCCCCCCCOCC(O)CO (centres undefined),58

# System: A549 NSCLC
# Experiment: NCI anticancer screen, dose series, 48 h
row,Structure (SMILES),TGI [µM]
1,CCOC(=O)C1=C(C)N(Cc2ccccc2)C2(O)C=CC(=O)C3=C(O)c4ccccc4C(=O)C312 (centres undefined),39.8
2,COc1cc(-c2cc(=O)c3c(O)c(OC)c(OC)c(OC)c3o2)cc(OC)c1OC,> 100
3,COc1cc(/C=N/NC2=NCCN2)ccc1O,> 100
4,O=C(NCCCCCN1CCC2(CCCCC2)CC1)C(C1CCCCC1)C1CCCCC1,16.7
5,C/C(=N\NC(N)=S)c1ccc(C2CCCCC2)cc1,> 100
6,CC[C@@]1(O)C(=O)OCc2c1cc1n(c2=O)Cc2c-1nc1ccccc1c2/C=N\NC(=O)C(N)Cc1c[nH]c2ccccc12 (some centres undefined),25.9
7,CCCCCCCCCCCCCCCCOCC(O)CO (centres undefined),44

# System: SR leukemia
# Experiment: NCI anticancer screen, dose series, 48 h
row,Structure (SMILES),TGI [µM]
1,CCOC(=O)C1=C(C)N(Cc2ccccc2)C2(O)C=CC(=O)C3=C(O)c4ccccc4C(=O)C312 (centres undefined),14.1
2,COc1cc(-c2cc(=O)c3c(O)c(OC)c(OC)c(OC)c3o2)cc(OC)c1OC,> 100
3,COc1cc(/C=N/NC2=NCCN2)ccc1O,> 100
4,O=C(NCCCCCN1CCC2(CCCCC2)CC1)C(C1CCCCC1)C1CCCCC1,4.17
5,C/C(=N\NC(N)=S)c1ccc(C2CCCCC2)cc1,> 100
6,CC[C@@]1(O)C(=O)OCc2c1cc1n(c2=O)Cc2c-1nc1ccccc1c2/C=N\NC(=O)C(N)Cc1c[nH]c2ccccc12 (some centres undefined),1.19
7,CCCCCCCCCCCCCCCCOCC(O)CO (centres undefined),28.5

# System: HOP-62 NSCLC
# Experiment: NCI anticancer screen, dose series, 48 h
row,Structure (SMILES),TGI [µM]
1,CCOC(=O)C1=C(C)N(Cc2ccccc2)C2(O)C=CC(=O)C3=C(O)c4ccccc4C(=O)C312 (centres undefined),31.8
2,COc1cc(-c2cc(=O)c3c(O)c(OC)c(OC)c(OC)c3o2)cc(OC)c1OC,16.9
3,COc1cc(/C=N/NC2=NCCN2)ccc1O,> 100
4,O=C(NCCCCCN1CCC2(CCCCC2)CC1)C(C1CCCCC1)C1CCCCC1,4.07
5,C/C(=N\NC(N)=S)c1ccc(C2CCCCC2)cc1,73.6
6,CCCCCCCCCCCCCCCCOCC(O)CO (centres undefined),43

# System: MDA-MB-231 breast
# Experiment: NCI anticancer screen, dose series, 48 h
row,Structure (SMILES),TGI [µM]
1,CCOC(=O)C1=C(C)N(Cc2ccccc2)C2(O)C=CC(=O)C3=C(O)c4ccccc4C(=O)C312 (centres undefined),37.8
2,COc1cc(-c2cc(=O)c3c(O)c(OC)c(OC)c(OC)c3o2)cc(OC)c1OC,38.5
3,COc1cc(/C=N/NC2=NCCN2)ccc1O,> 100
4,O=C(NCCCCCN1CCC2(CCCCC2)CC1)C(C1CCCCC1)C1CCCCC1,10.8
5,CC[C@@]1(O)C(=O)OCc2c1cc1n(c2=O)Cc2c-1nc1ccccc1c2/C=N\NC(=O)C(N)Cc1c[nH]c2ccccc12 (some centres undefined),> 100
6,CCCCCCCCCCCCCCCCOCC(O)CO (centres undefined),35.6

# System: HCT-15 colon
# Experiment: NCI anticancer screen, dose series, 48 h
row,Structure (SMILES),TGI [µM]
1,CCOC(=O)C1=C(C)N(Cc2ccccc2)C2(O)C=CC(=O)C3=C(O)c4ccccc4C(=O)C312 (centres undefined),22
2,COc1cc(-c2cc(=O)c3c(O)c(OC)c(OC)c(OC)c3o2)cc(OC)c1OC,> 100
3,COc1cc(/C=N/NC2=NCCN2)ccc1O,> 100
4,O=C(NCCCCCN1CCC2(CCCCC2)CC1)C(C1CCCCC1)C1CCCCC1,12.2
5,CC[C@@]1(O)C(=O)OCc2c1cc1n(c2=O)Cc2c-1nc1ccccc1c2/C=N\NC(=O)C(N)Cc1c[nH]c2ccccc12 (some centres undefined),> 100
6,CCCCCCCCCCCCCCCCOCC(O)CO (centres undefined),35.9

# System: K-562 leukemia
# Experiment: NCI anticancer screen, dose series, 48 h
row,Structure (SMILES),TGI [µM]
1,CCOC(=O)C1=C(C)N(Cc2ccccc2)C2(O)C=CC(=O)C3=C(O)c4ccccc4C(=O)C312 (centres undefined),61
2,COc1cc(-c2cc(=O)c3c(O)c(OC)c(OC)c(OC)c3o2)cc(OC)c1OC,> 100
3,COc1cc(/C=N/NC2=NCCN2)ccc1O,> 100
4,O=C(NCCCCCN1CCC2(CCCCC2)CC1)C(C1CCCCC1)C1CCCCC1,3.5
5,C/C(=N\NC(N)=S)c1ccc(C2CCCCC2)cc1,39.2
6,CC[C@@]1(O)C(=O)OCc2c1cc1n(c2=O)Cc2c-1nc1ccccc1c2/C=N\NC(=O)C(N)Cc1c[nH]c2ccccc12 (some centres undefined),> 100

# System: CCRF-CEM leukemia
# Experiment: NCI anticancer screen, dose series, 48 h
row,Structure (SMILES),TGI [µM]
1,CCOC(=O)C1=C(C)N(Cc2ccccc2)C2(O)C=CC(=O)C3=C(O)c4ccccc4C(=O)C312 (centres undefined),36.5
2,COc1cc(-c2cc(=O)c3c(O)c(OC)c(OC)c(OC)c3o2)cc(OC)c1OC,> 100
3,COc1cc(/C=N/NC2=NCCN2)ccc1O,> 100
4,O=C(NCCCCCN1CCC2(CCCCC2)CC1)C(C1CCCCC1)C1CCCCC1,11.9
5,CC[C@@]1(O)C(=O)OCc2c1cc1n(c2=O)Cc2c-1nc1ccccc1c2/C=N\NC(=O)C(N)Cc1c[nH]c2ccccc12 (some centres undefined),3.44
6,CCCCCCCCCCCCCCCCOCC(O)CO (centres undefined),27.3
